Results reported in US9962334B2, “Ophthalmic device having therapeutic agent delivery capability and method of forming same” (Novartis AG, priority 2008, dated 2018).
Marks after values point to notes of the source that are not given here.

What was measured:
[1] = cited from earlier work
[2] = cited from earlier work; remark: listed apart in the source
[3] = system: LEC migration and proliferation; test: In vitro inhibition of LEC migration and proliferation; assay type: cell-based; details: in vitro studies

Row | Structure (SMILES) | Exp. Log P/Hydrophobicity [1] | log P (PC log P) [1] | also measured
1 | O=C1O[C@H]([C@@H](O)CO)C(O)=C1O [Ascorbic Acid] | −0.5 |  | 
2 | Nc1c(CC(=O)O)cccc1C(=O)c1ccc(Br)cc1 [Bromfenac] |  |  | Water Solubility [2]: 0.0126 mg/mL
3 | COc1cc2c(c(OC)c1OC)-c1ccc(OC)c(=O)cc1[C@@H](NC(C)=O)CC2 [Colchicine] | 1.3 | 1.3 | concentration as low as which LEC migration and proliferation was inhibited [3]: 0.0005 mg/mL
4 | O=C(O)Cc1ccccc1Nc1c(Cl)cccc1Cl [Diclofenac Sodium] |  | 1.1 | 
5 | O=C(O)Cc1ccccc1Nc1c(Cl)cccc1Cl [Diclofenac] |  |  | soluble in water up to [2]: up to 50 mg/mL
6 | O=C(c1ccccc1)c1ccc2n1CCC2C(=O)O (stereo not drawn) [Ketorolac] | 2.1 |  | Water Solubility [2]: 25 mg/mL
7 | CO[C@@]12[C@H](COC(N)=O)C3=C(C(=O)C(C)=C(N)C3=O)N1C[C@@H]1N[C@@H]12 [Mitomycin-C] |  |  | concentration as low as which LEC migration and proliferation was inhibited [3]: 0.0005 mg/mL
8 | NC(=O)Cc1cccc(C(=O)c2ccccc2)c1N [Nepafenac] | 2.11* | 2.1 | 
